# Assay results taken from PMC12102759 (Protein Science : A Publication of the Protein Society, 2025).
# Where two headings read alike, the source gives them in different places.
# Test system: PABPC1 PABC
# Assay type: binding, human
# Conditions: DMS-BM library, bait PABPC1 PABC, row aa = residue at this position; for DMS-derived PSSM value (averaged), position L2: L = wild type; for DMS-derived PSSM value, position A6 / DMS-derived PSSM value (averaged), position A6: A = wild type; for DMS-derived PSSM value, position E8 / DMS-derived PSSM value (averaged), position E8 / DMS-derived PSSM value, position E10: E = wild type; for DMS-derived PSSM value, position S15 / DMS-derived PSSM value, position S13 / DMS-derived PSSM value (averaged), position S13 / DMS-derived PSSM value, position S2: S = wild type
# [1] = prey ATXN2, peptide KSTLNPNAKEFNPRSF, K = wild type
# [2] = prey ATXN2, peptide TLNPNAKEFNPRSFSQ, N = wild type
# [3] = prey ATXN2, peptide KSTLNPNAKEFNPRSF, T = wild type
# [4] = prey ATXN2, TLNPNAKEFNPRSF(averaged) over the two overlapping peptides
# [5] = prey ATXN2, peptide TLNPNAKEFNPRSFSQ
# [6] = prey ATXN2, peptide KSTLNPNAKEFNPRSF
# [7] = prey ATXN2, peptide TLNPNAKEFNPRSFSQ, P = wild type
# [8] = prey ATXN2, TLNPNAKEFNPRSF(averaged) over the two overlapping peptides, N = wild type
# [9] = prey ATXN2, peptide KSTLNPNAKEFNPRSF, F = wild type
# [10] = prey ATXN2, TLNPNAKEFNPRSF(averaged) over the two overlapping peptides, R = wild type
# [11] = prey ATXN2, peptide TLNPNAKEFNPRSFSQ, F = wild type
# [12] = prey ATXN2, TLNPNAKEFNPRSF(averaged) over the two overlapping peptides, F = wild type
# [13] = prey ATXN2, TLNPNAKEFNPRSF(averaged) over the two overlapping peptides, P = wild type
# [14] = prey ATXN2, TLNPNAKEFNPRSF(averaged) over the two overlapping peptides, T = wild type
# [15] = prey ATXN2, peptide KSTLNPNAKEFNPRSF, N = wild type
substance,measurement,setting,value
KSTLNPNAKEFNPRSF K9G (KSTLNPNAGEFNPRSF),"DMS-derived PSSM value, position K9",[1],0.006369
TLNPNAKEFNPRSFSQ N5D (TLNPDAKEFNPRSFSQ),"DMS-derived PSSM value, position N5",[2],0.00392
TLNPNAKEFNPRSFSQ T1W (WLNPNAKEFNPRSFSQ),"DMS-derived PSSM value, position T1","prey ATXN2, peptide TLNPNAKEFNPRSFSQ, T = wild type",0.001527
KSTLNPNAKEFNPRSF T3M (KSMLNPNAKEFNPRSF),"DMS-derived PSSM value, position T3",[3],0.08084
TLNPNAKEFNPRSF(averaged) L2W (TWNPNAKEFNPRSF),"DMS-derived PSSM value (averaged), position L2",[4],0.07274
TLNPNAKEFNPRSFSQ A6W (TLNPNWKEFNPRSFSQ),"DMS-derived PSSM value, position A6",[5],0
TLNPNAKEFNPRSFSQ E8D (TLNPNAKDFNPRSFSQ),"DMS-derived PSSM value, position E8",[5],0
KSTLNPNAKEFNPRSF S15T (KSTLNPNAKEFNPRTF),"DMS-derived PSSM value, position S15",[6],0.007163
TLNPNAKEFNPRSFSQ S13T (TLNPNAKEFNPRTFSQ),"DMS-derived PSSM value, position S13",[5],0.105
TLNPNAKEFNPRSFSQ P4E (TLNENAKEFNPRSFSQ),"DMS-derived PSSM value, position P4",[7],0.001688
TLNPNAKEFNPRSFSQ K7V (TLNPNAVEFNPRSFSQ),"DMS-derived PSSM value, position K7","prey ATXN2, peptide TLNPNAKEFNPRSFSQ, K = wild type",0.007815
TLNPNAKEFNPRSF(averaged) S13V (TLNPNAKEFNPRVF),"DMS-derived PSSM value (averaged), position S13",[4],0.05819
KSTLNPNAKEFNPRSF S2I (KITLNPNAKEFNPRSF),"DMS-derived PSSM value, position S2",[6],0.01393
KSTLNPNAKEFNPRSF S15V (KSTLNPNAKEFNPRVF),"DMS-derived PSSM value, position S15",[6],0.09383
TLNPNAKEFNPRSF(averaged) N5W (TLNPWAKEFNPRSF),"DMS-derived PSSM value (averaged), position N5",[8],0.0006294
KSTLNPNAKEFNPRSF T3S (KSSLNPNAKEFNPRSF),"DMS-derived PSSM value, position T3",[3],0
TLNPNAKEFNPRSF(averaged) S13L (TLNPNAKEFNPRLF),"DMS-derived PSSM value (averaged), position S13",[4],0.2429
KSTLNPNAKEFNPRSF F11E (KSTLNPNAKEENPRSF),"DMS-derived PSSM value, position F11",[9],0
TLNPNAKEFNPRSF(averaged) N10P (TLNPNAKEFPPRSF),"DMS-derived PSSM value (averaged), position N10",[8],0.03074
TLNPNAKEFNPRSF(averaged) R12I (TLNPNAKEFNPISF),"DMS-derived PSSM value (averaged), position R12",[10],0.04426
TLNPNAKEFNPRSF(averaged) N3M (TLMPNAKEFNPRSF),"DMS-derived PSSM value (averaged), position N3",[8],0
TLNPNAKEFNPRSFSQ S13H (TLNPNAKEFNPRHFSQ),"DMS-derived PSSM value, position S13",[5],0.01388
TLNPNAKEFNPRSFSQ S15T (TLNPNAKEFNPRSFTQ),"DMS-derived PSSM value, position S15",[5],0.0005737
TLNPNAKEFNPRSFSQ F9S (TLNPNAKESNPRSFSQ),"DMS-derived PSSM value, position F9",[11],0
TLNPNAKEFNPRSFSQ N5H (TLNPHAKEFNPRSFSQ),"DMS-derived PSSM value, position N5",[2],0.04051
TLNPNAKEFNPRSF,"DMS-derived PSSM value (averaged), position A6",[4],0.4881
same,"DMS-derived PSSM value (averaged), position E8",[4],0.1343
same,"DMS-derived PSSM value (averaged), position F9",[12],0.3018
same,"DMS-derived PSSM value (averaged), position F14",[12],0.06062
same,"DMS-derived PSSM value (averaged), position K7","prey ATXN2, TLNPNAKEFNPRSF(averaged) over the two overlapping peptides, K = wild type",0.01034
same,"DMS-derived PSSM value (averaged), position L2",[4],0.5343
same,"DMS-derived PSSM value (averaged), position N3",[8],0.5964
same,"DMS-derived PSSM value (averaged), position N5",[8],0.0195
same,"DMS-derived PSSM value (averaged), position N10",[8],0.05544
same,"DMS-derived PSSM value (averaged), position P4",[13],0.1195
same,"DMS-derived PSSM value (averaged), position P11",[13],0.04091
same,"DMS-derived PSSM value (averaged), position R12",[10],0.02883
same,"DMS-derived PSSM value (averaged), position S13",[4],0.05759
same,"DMS-derived PSSM value (averaged), position T1",[14],0.0418
TLNPNAKEFNPRSF(averaged) T1K (KLNPNAKEFNPRSF),"DMS-derived PSSM value (averaged), position T1",[14],0.01914
TLNPNAKEFNPRSFSQ E8L (TLNPNAKLFNPRSFSQ),"DMS-derived PSSM value, position E8",[5],0
TLNPNAKEFNPRSFSQ N5W (TLNPWAKEFNPRSFSQ),"DMS-derived PSSM value, position N5",[2],0.001259
KSTLNPNAKEFNPRSF F16N (KSTLNPNAKEFNPRSN),"DMS-derived PSSM value, position F16",[9],0.04727
TLNPNAKEFNPRSF(averaged) F9P (TLNPNAKEPNPRSF),"DMS-derived PSSM value (averaged), position F9",[12],0
TLNPNAKEFNPRSF(averaged) E8I (TLNPNAKIFNPRSF),"DMS-derived PSSM value (averaged), position E8",[4],0.006482
TLNPNAKEFNPRSF(averaged) T1N (NLNPNAKEFNPRSF),"DMS-derived PSSM value (averaged), position T1",[14],0.01868
TLNPNAKEFNPRSFSQ F9P (TLNPNAKEPNPRSFSQ),"DMS-derived PSSM value, position F9",[11],0
TLNPNAKEFNPRSF(averaged) A6W (TLNPNWKEFNPRSF),"DMS-derived PSSM value (averaged), position A6",[4],0
TLNPNAKEFNPRSFSQ E8Q (TLNPNAKQFNPRSFSQ),"DMS-derived PSSM value, position E8",[5],0.04954
TLNPNAKEFNPRSFSQ R12T (TLNPNAKEFNPTSFSQ),"DMS-derived PSSM value, position R12","prey ATXN2, peptide TLNPNAKEFNPRSFSQ, R = wild type",0.06242
KSTLNPNAKEFNPRSF K9R (KSTLNPNAREFNPRSF),"DMS-derived PSSM value, position K9",[1],0.0319
TLNPNAKEFNPRSFSQ F9Q (TLNPNAKEQNPRSFSQ),"DMS-derived PSSM value, position F9",[11],0
KSTLNPNAKEFNPRSF N5G (KSTLGPNAKEFNPRSF),"DMS-derived PSSM value, position N5",[15],0
TLNPNAKEFNPRSFSQ A6M (TLNPNMKEFNPRSFSQ),"DMS-derived PSSM value, position A6",[5],0
KSTLNPNAKEFNPRSF P6Q (KSTLNQNAKEFNPRSF),"DMS-derived PSSM value, position P6","prey ATXN2, peptide KSTLNPNAKEFNPRSF, P = wild type",0
TLNPNAKEFNPRSF(averaged) F9M (TLNPNAKEMNPRSF),"DMS-derived PSSM value (averaged), position F9",[12],0
KSTLNPNAKEFNPRSF S2P (KPTLNPNAKEFNPRSF),"DMS-derived PSSM value, position S2",[6],0.1938
KSTLNPNAKEFNPRSF N7T (KSTLNPTAKEFNPRSF),"DMS-derived PSSM value, position N7",[15],0.001519
KSTLNPNAKEFNPRSF K9P (KSTLNPNAPEFNPRSF),"DMS-derived PSSM value, position K9",[1],0.004179
KSTLNPNAKEFNPRSF E10R (KSTLNPNAKRFNPRSF),"DMS-derived PSSM value, position E10",[6],0
KSTLNPNAKEFNPRSF E10M (KSTLNPNAKMFNPRSF),"DMS-derived PSSM value, position E10",[6],0.002857
KSTLNPNAKEFNPRSF R14F (KSTLNPNAKEFNPFSF),"DMS-derived PSSM value, position R14","prey ATXN2, peptide KSTLNPNAKEFNPRSF, R = wild type",0.03238
TLNPNAKEFNPRSF(averaged) L2A (TANPNAKEFNPRSF),"DMS-derived PSSM value (averaged), position L2",[4],0
TLNPNAKEFNPRSFSQ E8S (TLNPNAKSFNPRSFSQ),"DMS-derived PSSM value, position E8",[5],0.09805
TLNPNAKEFNPRSFSQ E8H (TLNPNAKHFNPRSFSQ),"DMS-derived PSSM value, position E8",[5],0.0374
TLNPNAKEFNPRSFSQ P11V (TLNPNAKEFNVRSFSQ),"DMS-derived PSSM value, position P11",[7],0.1131
